Target: HIV-1 RNase H (Human immunodeficiency virus type 1 group M subtype B, UniProt P04585)
Experiment: RNase H FRET assay, HIV-1 RNase H
Assay type: biochemical
Conditions: IC50, HIV-1 RNase H, in vitro

For O=C(OC[C@H]1O[C@@H](Oc2ccc(O)cc2)[C@H](OC(=O)c2cc(O)c(O)c(O)c2)[C@@H](O)[C@@H]1O)c1ccc(O)cc1 [hyemaloside B (2), hyemaloside B], the IC50 was greater than 18.3 µM.

From paper PMC2586124 (Journal of natural products, 2008)
